Reference: ChEMBL document CHEMBL3797050, “Erinacine S, a Rare Sesterterpene from the Mycelia of Hericium erinaceus” (2016)
Active and inactive are the calls of the source. The rule behind the calls is not given here.

Columns and labels:
[1] = test system: Mus musculus; assay: Decrease in amyloid plaque burden in cerebral cortex of APPswe/PSIdeltaE9 double transgenic C57BL/6J mouse at 30 mg/kg/day administered via oral gavage for 30 days by AB10 staining based immunohistochemical assay; type: functional; set-up: scale not given: the % may be the effect or the level left
[2] = test system: Mus musculus; assay: Increase in nerve growth factor levels in cerebral cortex of APPswe/PSIdeltaE9 double transgenic C57BL/6J mouse at 30 mg/kg/day administered via oral gavage for 30 days; type: functional, organism-based
[3] = test system: Mus musculus; assay: Increase in insulin degrading enzyme in cerebral cortex of APPswe/PSIdeltaE9 double transgenic C57BL/6J mouse at 30 mg/kg/day administered via oral gavage for 30 days by Western blot analysis; type: functional
[4] = test system: Mus musculus; assay: Effect on neprilysin levels in cerebral cortex of APPswe/PSIdeltaE9 double transgenic C57BL/6J mouse at 30 mg/kg/day administered via oral gavage for 30 days by Western blot analysis; type: functional, organism-based

| SMILES | Activity [1] [%] | Activity [2] | Activity [3] [%] | Activity [4] |
| --- | --- | --- | --- | --- |
| CC(C)C1=C2[C@H]3CCC4=C(O)C(=O)[C@@]5(O)CO[C@H]6O[C@@H]([C@@H]4[C@]65O)[C@]3(C)CC[C@@]2(C)CC1 | 38.1 | inactive | 141.1 | inactive |
| CC(C)C1=C2C3=CC=C(C=O)C[C@H](O[C@@H]4OC[C@@H](O)[C@H](O)[C@H]4O)[C@]3(C)CC[C@@]2(C)CC1 | 40.2 | inactive | 130.5 | inactive |
